In patent US9321796B2, “Galactopyranosyl derivatives useful as medicaments” (Universiteit Gent, priority 2012, dated 2016):

Columns and labels:
[1] = system: collagen-induced arthritis (CIA) and experimental auto-immune encephalomyelitis (EAE); details: CIA and EAE in mice; cited from earlier work
iNKT cells [2] = assay: In vivo activation of iNKT cells: serum cytokines after intraperitoneal glycolipid injection; design: species or system C57BL/6 mice; details: 16 hours after intraperitoneal injection of 5 μg glycolipid
Experimental: Glycolipids from this invention were synthesized according to the procedure of example 1. α-C-GalCer was kindly provided by Aaron Diamond AIDS Research Center (New York, USA) and the NIH Tetramer Core Facility. Lyophilized glycolipids were dissolved in pure dimethylsulfoxide (DMSO) (Sigma) at a 10 mg/mL concentration and stored at −20° C. Glycolipids were solubilized by adding phosphate buffer saline (PBS) (Invitrogen) or a standard vehicle (96 mg/mL sucrose, 10 mg/mL sodium deoxycholate, 0,05% Tween 20), warming to 80° C. for 20 minutes, and then sonication for 10 minutes.
(§1) For in vivo activation of iNKT cells C57BL/6 mice were either intraperitoneally injected with 5 μg glycolipid (dissolved in PBS) or intravenously with 6·10^5 or 1·10^4 glycolipid pulsed BMDCs.
In order to assess the antigenicity of the carbamate-containing galactopyranosyl compounds of example 1 and their ability to induce Th1-skewing, mice were bled at 16 hours after intraperitoneal glycolipid exposure because this is known to afford peak levels of IFN-y, the hallmark Th1 cytokine. […] IFN-y production in response to glycolipid dependent iNKT cell activation is known to be dependent on IL-12^10-12, which was therefore analyzed.

B16 melanoma cells = assay: B16 melanoma lung metastasis model with glycolipid-loaded BMDC; assay type: in vivo, mice; details: 10,000 glycolipid pulsed BMDC
Experimental: (§2) The murine iNKT hybridoma N38-2C12 (Vα14Vβ8.1/8.2b) was provided by Brown University, Providence, Rhode Island, USA). Cells were cultured in DMEM Sigma) supplemented with 10% fetal calf serum (Invitrogen), 1% glutamine (Sigma), 1% penicillin streptomycin (Sigma), and 2-mercapto-ethanol (Sigma) (hereinafter called cDMEM). B16 melanoma cells were cultured in advanced RPMI (Sigma) supplemented with 10% fetal calf serum (Invitrogen), 1% glutamine (Sigma) and 1% penicillin streptomycin (Sigma). They were harvested using cell dissociation buffer, which was washed away twice first using the medium and second with PBS. 400,000 cells were intravenously (IV) injected within 30 minutes after harvest into the tail vein.
In order to determine if the new glycolipids can also mimic the anti-metastatic activity of NU-α-GalCer, we examined them in the B16 lung melanoma model. […] As little as 10,000 pulsed BMDC were enough to exert this marked tumor response. To analyze if these anti-tumor results still correspond to strong cytokine responses mice were bled 16 hours after injection of 10,000 pulsed bone marrow dendritic cells. […] Strikingly, the IL-12 results were not different between the 2 doses in contrast to the IFN-γ production, which was more dose-dependent (FIG. 9). […]

[3] = system: spleen DCs (CD11c CD11b double positive); assay: Co-stimulatory molecule expression on spleen dendritic cells after glycolipid-pulsed BMDC; assay type: in vivo, C57/BL6 mice; details: 600000 glycolipid-pulsed BMDC
From the text: Spleen cells were isolated. Lymphocytes were isolated at the interface and washed, depleted with an anti-CD3 kit (Miltenyi Biotec, Sunnyvale, […]) and re-suspended in a staining buffer containing saturating amount of anti-Fcy Receptor type II/type III monoclonal antibodies (Miltenyi). Hereafter cells were stained with fluorochrome-conjugated mAbs (all from Bioscience) directed against the described antigens. Live cells (exclusion with DAPI) were acquired on a FACSCanto (BD) flow cytometer and analyzed using FlowJo (Tree Star) software.
Expression of co-stimulatory markers at the cell surface is linked to cytokine polarization because this determines the degree of activation of by-stander cells such as NK cells, whose IFN-y production is responsible for Th1 polarized cytokine profile. For α-C-GalCer, it has been shown that expression of CD40 is essential for IL-12 and subsequent NK cell dependent IFN-γ production. In contrast, OCH, a Th2 polarizing antigen, is not able to induce CD40 expression at the surface of DCs. Additionally OX40L up-regulation by dendritic cells (DC) has been found important for α-GalCer dependent tumour killing.
Glycolipid stimulation of iNKT cells leads to CD28 expression, and induces CD80 and CD86 expression at the dendritic cell surface, which is required for induction of IL-12 by dendritic cells. […]

iNKT cells [4] = assay: In vivo cytokine secretion after intravenous injection of glycolipid-pulsed BMDC; design: species or system C57BL/6 mice
Experimental: as §1
(§3) Next we examined if the glycolipid pulsed BMDC behave similarly in vivo. For cytokine analysis we bled the mice at several time points after injection. We focused on IFN-γ and IL-12 secretion.
In order to determine if the new glycolipids can also mimic the anti-metastatic activity of NU-α-GalCer, we examined them in the B16 lung melanoma model. […] As little as 10,000 pulsed BMDC were enough to exert this marked tumor response. To analyze if these anti-tumor results still correspond to strong cytokine responses mice were bled 16 hours after injection of 10,000 pulsed bone marrow dendritic cells. […] Strikingly, the IL-12 results were not different between the 2 doses in contrast to the IFN-γ production, which was more dose-dependent (FIG. 9). This might indicate that other cytokines such as IL-18, which is also necessary for the induction of IFN-γ by NK cells might play an additional role in iNKT cell dependent Th1 polarization.

[5] = molecular target: T1, TCR / mCD1d-glycolipid complex (Mus musculus, UniProt P11609); assay: Surface plasmon resonance: TCR binding to mCD1d-glycolipid complexes; details: SPR, 25° C., Langmuir 1:1 model; read-out: KD
T1 sequence (P11609 19-297): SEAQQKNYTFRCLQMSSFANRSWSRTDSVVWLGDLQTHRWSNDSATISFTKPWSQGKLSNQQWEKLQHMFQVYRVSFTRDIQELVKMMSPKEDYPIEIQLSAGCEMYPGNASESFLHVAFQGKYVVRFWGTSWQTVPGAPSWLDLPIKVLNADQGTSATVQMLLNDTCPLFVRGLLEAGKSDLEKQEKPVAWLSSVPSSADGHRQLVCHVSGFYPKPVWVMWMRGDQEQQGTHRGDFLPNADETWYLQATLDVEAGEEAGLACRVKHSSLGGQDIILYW
T1 sequence (P01887 21-119 partner): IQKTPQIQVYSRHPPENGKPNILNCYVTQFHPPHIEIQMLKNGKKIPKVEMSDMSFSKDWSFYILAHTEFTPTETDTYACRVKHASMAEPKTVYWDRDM
Experimental: SPR studies were conducted using a Biacore 3000 (Biacore). Glycolipids were dissolved at 1 mg/ml in DMSO and before loading were diluted to 0.25 mg/ml with vehicle solution (50 mM Tris-HCl pH 7.0, 4.8 mg/ml sucrose, 0.5 mg/ml deoxycholate and 0.022% Tween-20), heated for 20 minutes at 80° C. After cooling 1 μg of each lipid was incubated with 10 μg enzymatically biotinylated mCD1d overnight at room temperature. In one embodiment, 400-600 response units (RU) of mCD1d-glycolipid complexes were immobilized onto a CA capture chip (Biacore). A reference surface was generated in another flow channel with unloaded mCD1d immobilized at RU of 500. During the association phase, a series of increasing concentrations of TCR (in 10 mM HEPES, 150 mM NaCl, 3.0 mM EDTA, pH 7.4) in duplicate were injected for 80 seconds and the dissociation phase (running buffer only) was monitored over 45 minutes. Experiments were carried out at 25° C. with a flow rate of 30 μl/min and performed at least two to three times, each time with a different batch of TCR preparation. Kinetic parameters were calculated after subtracting the response to mCD1d molecules in the reference channel, using a simple Langmuir 1:1 model in the BIA evaluation software version 4.1. One representative sensorgram for each lipid is shown. […]

human iNKT cells = assay: Cytokine secretion in cultures of purified human iNKT cells; assay type: cell-based; details: glycolipid 100 ng/ml pulsed PBMCs, 24 hours
Experimental: Human iNKT cells from healthy adult individuals were sorted and expanded. PBMCs were isolated by means of density centrifugation, incubated overnight in the presence of indicated glycolipids (100 ng/ml), washed and irradiated (40 Gy). Subsequently, 5×10^4 iNKT cells were stimulated with 10^5 glycolipid pulsed autologous PBMCs in RPMI 1640 media supplemented with 10% human AB serum (Lonza), 1% sodium pyruvate, 1% nonessential amino acids and 1% penicillin/streptomycin (all from Invitrogen). Supernatants were collected after 24 hours of culture and cytokine levels were determined by means of cytometric Bead Arrays (CBA) following the manufacturer's instructions (BD).
as §3

[6] = system: murine iNKT hybridoma N38-2C12; assay: Co-culture of glycolipid-pulsed BMDC with iNKT cell hybridoma 2C12, IL-2 by ELISA; assay type: cell-based; details: BMDC loaded 20 hours with 100 ng/mL glycolipid, 16 hours co-culture with 2C12 cells
Experimental: as §2
For in vitro stimulation, murine iNKT hybridoma cells at 5·10^4 cells/well in 96-well plates were stimulated with the 10^5 cells/well glycolipid pulsed BMDCs in cDMEM for 4, 16 or 24 hours at […], and levels of murine IL-2 secretion were determined by ELISA.
iNKT cell polarization is a matter of debate and it has been shown uptake by different cells can also affect the outcome. To avoid these host dependent parameters we set up a simple in vitro model, which consists of co-cultures of glycolipid-pulsed bone marrow dendritic cells and an iNKT cell hybridoma (i.c. 2C12 containing a Vβ8.2 TCR). IL-2 production is used as a read-out for TCR affinity for the whole CD1d-glycolipid complex. […] To confirm this we also measured intracellular IL-2 production in 2C12 cells already 4 hours after coculture, where a similar result was obtained (FIG. 2). Because IL-2 production is a downstream event of TCR signaling we analyzed TCRβ expression.
In order to assess the antigenic activity of the triazolyl-containing galactopyranosyl compounds of example 10, bone marrow dendritic cells (BMDC) were loaded during 20 hours with 100 ng/mL glycolipid. After 16 hours of co-culture with 2C12 cells (iNKT cell hybridoma), IL-2 secretion was determined by ELISA.

[7] = 16 hours after injection of 10,000 pulsed BMDC

Molecule: CCCCCCCCCCCCCCCCCCCCCCCC(=O)N[C@@H](COC1OC(CO)C(O)C(O)C1O)[C@H](O)[C@H](O)CCCCC (some centres unmarked) [OCH]
- effect on Th1-mediated auto-immune diseases [1]: protective effect

Molecule: CCCCCCCCCCCCCCCCCCCCCCCCCC(=O)NC(COC1OC(COC(=O)Nc2ccncc2)C(O)C(O)C1O)C(O)C(O)CCCCCCCCCCCCCC [PyrC-α-GalCer, (2S,3S,4R)-1-O-(6-O-(4pyridinylcarbamoyl)-α-D-galactopyranosyl)-2-hexa-cosylamino-octadecane-1,3,4-triol]
- IL-12 production (iNKT cells [2]): significantly higher IL-12 levels than NU-α-GalCer
- prevention of tumor metastasis (lung nodules) (B16 melanoma cells): still better in preventing tumor metastasis
- CD40 up-regulation on spleen DCs [3]: induces early CD40 up-regulation
- IFN-γ production (iNKT cells [4]; [7]): significantly higher
- IL-12 production (iNKT cells [4]; [7]): significantly higher
- IL-12 secretion after 24 hours (iNKT cells [4]; 24 hours after injection of glycolipid pulsed BMDC): markedly higher than for NU-α-GalCer
- IL-12 secretion (iNKT cells [4]; after injection of glycolipid pulsed BMDC): very high
- IFN-γ level time course (iNKT cells [4]; several time points after injection of glycolipid pulsed BMDC): increased up to 24 hours after injection
- Kd [5]: 33 nM
- Th1-biased cytokine secretion (more IFN-γ and IL-12 and less IL-4 and IL-13 compared to α-GalCer) (human iNKT cells): able to induce Th1-biased cytokine secretion

Molecule: (2S,3S,4R)-1-O-(6-deoxy-6-(4-butyltriazol-1-yl)-α-D-galactopyranosyl)-2-hexacosylamino-octadecane-1,3,4-triol [Compound 44]
- IL-2 secretion [6]: tend to induce the highest IL-2 secretion

Molecule: (2S,3S,4R)-1-O-(6-deoxy-6-(4-phenyltriazol-1-yl)-α-D-galactopyranosyl)-2-hexacosylamino-octadecane-1,3,4-triol [Compound 45]
- IL-2 secretion [6]: tend to induce the highest IL-2 secretion

Molecule: (2S,3S,4R)-1-O-(6-deoxy-6-(triazol-1-yl)-α-D-galactopyranosyl)-2-hexacosylamino-octadecane-1,3,4-triol [non-substituted triazolyl compound]
- IL-2 secretion [6]: even better in stimulating iNKT cells to release IL-2
